Results taken from patent US20240101527A1, “QUINOLONE CARBOXYLIC DERIVATIVES” (TAIGEN BIOTECHNOLOGY CO., LTD., priority 2019, published 2024).
Values after ≈ are worked out from the molar mass of the structure shown.

Assays:
Test in all cases: MIC determination, microdilution method (CLSI)
Format in all cases: cell-based
[1] = tested on: Streptococcus pneumoniae ATCC 49619; conditions: for MIC: Streptococcus pneumoniae, ATCC49619, Gram(+), 24 h at 37° C., read-out: MIC Sp49619
Experimental: (§1) The MICs of compounds against all bacterial strains were determined using the microdilution method according to the Clinical and Laboratory Standards Institute guidelines. Bacteria from two or three colonies were picked from freshly streaked culture plates and incubated in culture broth for 8 h. The bacterial culture was then diluted with double-concentrated culture broth to a final concentration of 5×10^5 colony-forming unit (CFU)/mL. Testing compounds were prepared by diluting the stock solution with dimethyl sulfoxide (DMSO). The diluted bacterial suspension was added to an equal volume of a drug solution in a single microwell and incubated for 24 h at 37° C. The minimum concentration in the microwells with no visible bacterial growth was defined as the MIC. All MIC determinations were repeated twice on different days. The MIC of Compounds 1 to 15 against gram(+) and gram(−) bacteria are shown as follows: […]

[2] = tested on: Staphylococcus aureus ATCC 29213; conditions: for MIC: Staphylococcus aureus, ATCC29213, Gram(+), 24 h at 37° C., read-out: MIC Sa29213
Experimental: as §1

[3] = tested on: Pseudomonas aeruginosa ATCC 27853; conditions: for MIC: Pseudomonas aeruginosa, ATCC27853, Gram(−), 24 h at 37° C., read-out: MIC Pa27853
Experimental: as §1

[4] = tested on: Pseudomonas aeruginosa K2376; conditions: for MIC: Pseudomonas aeruginosa, K2376, Gram(−), 24 h at 37° C., read-out: MIC PaK2376
Experimental: as §1

[5] = MIC of comparative compound / MIC of Compound 1
[6] = MIC of comparative compound / MIC of Compound 2
[7] = MIC of comparative compound / MIC of Compound 6
[8] = MIC of comparative compound / MIC of Compound 7
[9] = MIC of comparative compound / MIC of Compound 8
[10] = MIC of comparative compound / MIC of Compound 11

SMILES	MIC [1]	MIC [3]	MIC [4]	MIC [2]	further results
COc1c(N2CC(C)C(N)C2)ccc2c(=O)c(C(=O)O)cn(C3CC3)c12 (stereo not shown) [A1, reference compound]					MIC difference (folds) Sp49619 [1, 5]: 64.5 folds; MIC difference (folds) Sa29213 [2, 5]: 16.1 folds
COc1c(N2CCC(C)C(N)C2)ccc2c(=O)c(C(=O)O)cn(C3CC3)c12 (stereo not shown) [A2, reference compound]					MIC difference (folds) Sp49619 [1, 5]: 4.0 folds; MIC difference (folds) Pa27853 [3, 5]: 32.0 folds; MIC difference (folds) PaK2376 [4, 5]: 32.0 folds; MIC difference (folds) Sa29213 [2, 5]: 4.0 folds
CCC1CCN(c2ccc3c(=O)c(C(=O)O)cn(C4CC4)c3c2OC)CC1N (stereo not shown) [B1, reference compound]					MIC difference (folds) Sp49619 [1, 6]: 1.0 folds; MIC difference (folds) Pa27853 [3, 6]: 2.0 folds; MIC difference (folds) PaK2376 [4, 6]: 2.0 folds; MIC difference (folds) Sa29213 [2, 6]: 8.1 folds
CCC1CCN(c2ccc3c(=O)c(C(=O)O)cn(CC(F)(F)F)c3c2OC)CC1N (stereo not shown) [B2, reference compound]					MIC difference (folds) Sp49619 [1, 6]: 4.0 folds; MIC difference (folds) Pa27853 [3, 6]: 16.0 folds; MIC difference (folds) PaK2376 [4, 6]: 4.0 folds; MIC difference (folds) Sa29213 [2, 6]: 1.0 folds
CCC1CCN(c2ccc3c(=O)c(C(=O)O)cn(CC(F)F)c3c2OC)CC1N (stereo not shown) [B3, reference compound]					MIC difference (folds) Sp49619 [1, 6]: 8.1 folds; MIC difference (folds) Pa27853 [3, 6]: 4.0 folds; MIC difference (folds) PaK2376 [4, 6]: 8.0 folds; MIC difference (folds) Sa29213 [2, 6]: 1.0 folds
COc1c(N2CC[C@H](N)C2)ccc2c(=O)c(C(=O)O)cn(C3CC3)c12 [C1, reference compound]					MIC difference (folds) Sp49619 [1, 7]: 8.0 folds; MIC difference (folds) Sa29213 [2, 7]: 4.0 folds
COc1c(N2CCC(N)C2)ccc2c(=O)c(C(=O)O)cn(C3CC3F)c12 (stereo not shown) [C2, reference compound]					MIC difference (folds) Sp49619 [1, 7]: 15.9 folds; MIC difference (folds) Pa27853 [3, 7]: 1.0 folds; MIC difference (folds) PaK2376 [4, 7]: 1.0 folds; MIC difference (folds) Sa29213 [2, 7]: 8.0 folds
COc1c(N2CC[C@H](N)C2)ccc2c(=O)c(C(=O)O)cn(C(C)CF)c12 (stereo partly shown) [C3, reference compound]					MIC difference (folds) Sp49619 [1, 7]: 508.0 folds; MIC difference (folds) Pa27853 [3, 7]: 16.0 folds; MIC difference (folds) PaK2376 [4, 7]: 4.0 folds; MIC difference (folds) Sa29213 [2, 7]: 127.0 folds
COc1c(N2CCC(C)C(N)C2)ccc2c(=O)c(C(=O)O)cn(C3CC3F)c12 (stereo not shown) [Compound 1, 7-(3-Amino-4-methyl-piperidin-1-yl)-1-(2-fluoro-cyclopropyl)-8-methoxy-4-oxo-1,4-dihydro-quinoline-3-carboxylic acid]	0.031 µg/mL (≈ 0.0796 µM)	0.25 µg/mL (≈ 0.642 µM)	1 µg/mL (≈ 2.57 µM)	0.031 µg/mL (≈ 0.0796 µM)	
CC[C@@H]1CCN(c2ccc3c(=O)c(C(=O)O)cn([C@@H]4C[C@@H]4F)c3c2OC)C[C@H]1N [Compound 2]	0.031 µg/mL (≈ 0.0768 µM)	0.5 µg/mL (≈ 1.24 µM)	2 µg/mL (≈ 4.96 µM)	0.031 µg/mL (≈ 0.0768 µM)	
CCC[C@@H]1CCN(c2ccc3c(=O)c(C(=O)O)cn([C@@H]4C[C@@H]4F)c3c2OC)C[C@H]1N [Compound 3]	0.031 µg/mL (≈ 0.0743 µM)	2 µg/mL (≈ 4.79 µM)	4 µg/mL (≈ 9.58 µM)	0.031 µg/mL (≈ 0.0743 µM)	
COc1c(N2CC[C@@H](C(F)(F)F)[C@H](N)C2)ccc2c(=O)c(C(=O)O)cn([C@@H]3C[C@@H]3F)c12 [Compound 4]	0.031 µg/mL (≈ 0.0699 µM)	4 µg/mL (≈ 9.02 µM)	4 µg/mL (≈ 9.02 µM)	0.031 µg/mL (≈ 0.0699 µM)	
COc1c(N2CC[C@@H](F)[C@H](N)C2)ccc2c(=O)c(C(=O)O)cn([C@@H]3C[C@@H]3F)c12 [Compound 5]	0.063 µg/mL (≈ 0.16 µM)	4 µg/mL (≈ 10.2 µM)	16 µg/mL (≈ 40.7 µM)	0.063 µg/mL (≈ 0.16 µM)	
C[C@@H]1CCN(c2ccc3c(=O)c(C(=O)O)cn([C@@H]4C[C@@H]4F)c3c2Cl)C[C@H]1N [Compound 7]	0.031 µg/mL (≈ 0.0787 µM)	2 µg/mL (≈ 5.08 µM)	2 µg/mL (≈ 5.08 µM)	0.031 µg/mL (≈ 0.0787 µM)	
CC[C@@H]1CCN(c2ccc3c(=O)c(C(=O)O)cn([C@@H]4C[C@@H]4F)c3c2Cl)C[C@H]1N [Compound 8]	0.008 µg/mL (≈ 0.0196 µM)	0.125 µg/mL (≈ 0.306 µM)	0.5 µg/mL (≈ 1.23 µM)	0.031 µg/mL (≈ 0.076 µM)	
Cc1c(N2CCC[C@H](N)C2)ccc2c(=O)c(C(=O)O)cn([C@@H]3C[C@@H]3F)c12 [Compound 9]	0.031 µg/mL (≈ 0.0863 µM)	0.5 µg/mL (≈ 1.39 µM)	2 µg/mL (≈ 5.56 µM)	0.031 µg/mL (≈ 0.0863 µM)	
CC[C@@H]1CCN(c2ccc3c(=O)c(C(=O)O)cn([C@@H]4C[C@@H]4F)c3c2C)C[C@H]1N [Compound 10]	0.031 µg/mL (≈ 0.08 µM)	0.125 µg/mL (≈ 0.323 µM)	0.5 µg/mL (≈ 1.29 µM)	0.031 µg/mL (≈ 0.08 µM)	
C[C@H]1C[C@H](N)CN(c2ccc3c(=O)c(C(=O)O)cn([C@@H]4C[C@@H]4F)c3c2Cl)C1 [Compound 11]	0.25 µg/mL (≈ 0.635 µM)	2 µg/mL (≈ 5.08 µM)	4 µg/mL (≈ 10.2 µM)	0.031 µg/mL (≈ 0.0787 µM)	
Cc1c(N2C[C@@H](C)C[C@H](N)C2)ccc2c(=O)c(C(=O)O)cn([C@@H]3C[C@@H]3F)c12 [Compound 12]	0.125 µg/mL (≈ 0.335 µM)	1 µg/mL (≈ 2.68 µM)	4 µg/mL (≈ 10.7 µM)	0.063 µg/mL (≈ 0.169 µM)	
COc1c(N2C[C@@H](N)C[C@H](F)C2)ccc2c(=O)c(C(=O)O)cn([C@@H]3C[C@@H]3F)c12 [Compound 13]	0.031 µg/mL (≈ 0.0788 µM)	2 µg/mL (≈ 5.08 µM)	16 µg/mL (≈ 40.7 µM)	0.063 µg/mL (≈ 0.16 µM)	
COc1c(N2CC[C@H](N)[C@@H](F)C2)ccc2c(=O)c(C(=O)O)cn([C@@H]3C[C@@H]3F)c12 [Compound 14]	0.125 µg/mL (≈ 0.318 µM)	2 µg/mL (≈ 5.08 µM)	2 µg/mL (≈ 5.08 µM)	0.063 µg/mL (≈ 0.16 µM)	
NC1CCN(c2ccc3c(=O)c(C(=O)O)cn([C@@H]4C[C@@H]4F)c3c2Cl)CC1 [Compound 15]	0.063 µg/mL (≈ 0.166 µM)	0.25 µg/mL (≈ 0.658 µM)	8 µg/mL (≈ 21.1 µM)	0.063 µg/mL (≈ 0.166 µM)	
CC1CCN(c2ccc3c(=O)c(C(=O)O)cn(C4CC4)c3c2Cl)CC1N (stereo not shown) [D1, reference compound]					MIC difference (folds) Sp49619 [1, 8]: 1.0 folds; MIC difference (folds) Pa27853 [3, 8]: 2.0 folds; MIC difference (folds) PaK2376 [4, 8]: 4.0 folds; MIC difference (folds) Sa29213 [2, 8]: 1.0 folds
CCC1CCN(c2ccc3c(=O)c(C(=O)O)cn(CC(F)F)c3c2Cl)CC1N (stereo not shown) [E1, reference compound]					MIC difference (folds) Sp49619 [1, 9]: 15.6 folds; MIC difference (folds) Pa27853 [3, 9]: 8.0 folds; MIC difference (folds) PaK2376 [4, 9]: 8.0 folds; MIC difference (folds) Sa29213 [2, 9]: 1.0 folds
CC1CC(N)CN(c2ccc3c(=O)c(C(=O)O)cn(C4CC4)c3c2Cl)C1 (stereo not shown) [F1, reference compound]					MIC difference (folds) Sp49619 [1, 10]: 2.0 folds; MIC difference (folds) Pa27853 [3, 10]: 2.0 folds; MIC difference (folds) PaK2376 [4, 10]: 1.0 folds; MIC difference (folds) Sa29213 [2, 10]: 1.0 folds
CC1CC(N)CN(c2ccc3c(=O)c(C(=O)O)cn(CC(F)F)c3c2Cl)C1 (stereo not shown) [F2, reference compound]					MIC difference (folds) Sp49619 [1, 10]: 16.0 folds; MIC difference (folds) Pa27853 [3, 10]: 4.0 folds; MIC difference (folds) PaK2376 [4, 10]: 4.0 folds; MIC difference (folds) Sa29213 [2, 10]: 16.1 folds
